One experiment has as its target T1, HSP90a protein (Homo sapiens, UniProt P07900).
T1 construct: purchased BPS Bioscience 50298
Description: HSP90α-binding fluorescent polarization (FP) assay, BODIPY-labeled RNK04010 probe. The note with it: FP competition with RNK04010 (BODIPY-labeled), 5 nM, 300 min at 25° C. The method, boiled down: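 Displacement of a 5 nM fluorescent HSP90 ligand from the N-terminal HSP90a domain by FP. Incubation ran at 25° C: 120 min for the FITC-geldanamycin tracer, 300 min for the BODIPY-conjugated triazolone RNK04010.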

The test system of experiment [1] is MIA PaCa-2 human pancreatic carcinoma. Kind of experiment: MIA PaCa-2 CCK-8 proliferation assay. The experiment is classed as cell-based. To be noted: Homo sapiens, MIA PaCa-2, 72 h, MIA PaCa-2 cells. Put shortly: (§1)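 MIA PaCa-2 (2 copies KRAS(G12C)), NCI-H358 and NCI-H23 (1 copy KRAS(G12C) each) were exposed to compound in 3-fold serial dilutions from 20 μM to 1.02 nM. Viability was read as CCK-8 absorbance, and % inhibition was computed against DMSO-treated cells, with cell-free DMSO medium as blank.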

Experiment [2] deals with NCI-H358 human non-small cell lung cancer. Kind of experiment: NCI-H358 CCK-8 proliferation assay. It counts as cell-based. To be noted: NCI-H358 cells, 72 hr. The method, boiled down:
as §1
In general terms: Tetrazolium dyes change colour on reduction, which living cells bring about.

The target in experiment [3] is T2, KRAS(G12C) (Homo sapiens, UniProt P01116, G12C). Kind of experiment: KRAS(G12C) Western blot protein degradation assay in MIA PaCa-2 cells. It counts as cell-based. Also on record: host or cells: LU65A. To be noted: 48 hr; for inhibition at 0.1562 µM: 156.2 nM; for inhibition at 0.3125 µM: 312.5 nM; for inhibition at 0.625 µM: 625 nM; for inhibition at 1.25 µM: 1250 nM; for inhibition at 2.5 µM: 2500 nM; for inhibition at 5 µM: 5000 nM; for inhibition at 10 µM: 10,000 nM. The protocol:
The following cancer cell lines were employed: BT-474 human breast carcinoma (ATCC, #HTB-20); MIA PaCa-2 human pancreatic carcinoma [2 copies KRAS(G12C)](ATCC, #CRL-1420); NCI-H23 human non-small cell lung cancer [1 copy KRAS(G12C)](ATCC, #CRL-5800); NCI-H358 human non-small cell lung cancer [1 copy KRAS(G12C)](ATCC, #CRL-5807); LU65A human lung carcinoma (Pharmaron, Beijing, China). Cell lines were cultured essentially according to ATCC and Pharmaron recommendations.
KRAS(G12C) Western Blot Protein Degradation Assay
The MIA PaCa-2 human pancreatic carcinoma cell line and LU65A human lung cancer cell line, which expresses KRAS(G12C), were seeded in 6- or 12-well tissue culture plates, and after 1 hr, test compounds were added at various concentrations and incubated at 37° C./5% CO2 for 48 hr (MIA Paca-2) and 6 hr (LU65A) respectively. Cells were then washed with cold PBS, aspirated and cold RIPA buffer containing a protease/phosphatase inhibitor cocktail was added to lyse cells. After centrifugation, the total protein concentrations of cell lysates were determined using the BCA protein assay. Samples were normalized for equivalent protein concentrations, 5×SDS-PAGE loading buffer added and denatured at 100° C. for 10 min. 20 μl of each sample/well was loaded on a SDS-PAGE gel and electrophoresed for 20 min at 80 V, then 120 V for 1.5 hr. Gels were then electroblotted to nitrocellulose membranes using a wet-transfer method at 250 mA for 2.5 hr. Membranes were incubated with blocking buffer for 1 hr and washed 3 times with TBST for 5 min. Membranes were then incubated with anti-KRAS (Sigma-Aldrich, #SAB1404011) and anti-β-Actin monoclonal antibodies (Cell Signaling Technology, #3700) diluted in blocking buffer at 4° C. overnight per the manufacturer's recommendations. After washing 3 times, blots were incubated with appropriately labeled secondary antibodies for 1 hr at room temperature and washed again. Fluorescence imaging and quantitation was performed using a LI-COR Odyssey. Results was analyzed using GraphPad Prism 7 software. Compound degradation of was determined by the following equation and DC50 values (the concentration at which 50% of the maximal degradation of KRAS occurs) calculated using GraphPad Prism 7 software:
% Inhibition=100−(D−B)/(S−B)*100%. • S: Fluorescence intensity of cells with antibody • D: Fluorescence intensity of compound-treated cells with antibody • B: Fluorescence intensity of cells without antibody

Experiment [4] concerns the target T2, KRAS(G12C). Description: KRAS(G12C)/SOS1 homogeneous time-resolved fluorescence (HTRF) assay. Also on record: purchased Cisbio 63ADK000CB16PEG. The note with it: absence of GTP, 4° C. for 3 hr, read-out: KRAS (G12C) binding. Put shortly: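 HTRF kit measuring compound-induced block of KRAS(G12C)-SOS1 interaction without GTP. Compounds tested as 3-fold serial dilutions down to 1.02 nM, incubated with reaction components 3 h at 4 °C in sealed plates before fluorescence read.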

T2 sequence (P01116 1-188 isoform P01116-2 G12C): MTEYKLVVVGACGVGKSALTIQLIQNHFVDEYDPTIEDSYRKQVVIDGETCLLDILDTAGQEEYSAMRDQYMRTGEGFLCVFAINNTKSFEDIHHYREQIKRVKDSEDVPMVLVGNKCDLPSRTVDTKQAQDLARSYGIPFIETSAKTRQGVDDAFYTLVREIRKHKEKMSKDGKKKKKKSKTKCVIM

One may read the EC50 as the concentration giving half of the maximal effect. The term inhibition denotes the relative decrease from the control value, in per cent. High values mean a strong effect, low ones a weak effect. On to `C=CC(=O)N1CCN(c2nc(OC[C@@H]3CCN(C(=O)C4CCN(Cc5ccc(-n6c(O)nnc6-c6cc(C(C)C)c(O)cc6O)cc5)CC4)C3)nc3c2CCN(c2cccc4cccc(Cl)c24)C3)C[C@@H]1CC#N` [Compound 148, 2-((S)-1-acryloyl-4-(7-(8-chloronaphthalen-1-yl)-2-(((R)-1-(1-(4-(3-(2,4-dihydroxy-5-isopropylphenyl)-5-hydroxy-4H-1,2,4-triazol-4-yl)benzyl)piperidine-4-carbonyl)pyrrolidin-3-yl)methoxy)-5,6,7,8-tetrahydropyrido[3,4-d]pyrimidin-4-yl)piperazin-2-yl)acetonitrile], for which the IC50 on HSP90a protein is below 100 nM. This compound also came in with an EC50 in experiment [1] of 100 to 1000 nM. In addition, the EC50 in experiment [2] is 100 to 1000 nM. Also, at KRAS(G12C) [3], the inhibition at 0.1562 µM is below 33%, the inhibition at 0.3125 µM was below 33%, the inhibition at 0.625 µM was below 33% and the inhibition at 1.25 µM was below 33%. Moreover, on KRAS(G12C) [3], the inhibition at 2.5 µM was below 33%, the inhibition at 5 µM was below 33% and the inhibition at 10 µM was in the range of 33 to 66%. At KRAS(G12C) [4], the IC50 lay within 100 to 1000 nM.

For `C=CC(=O)N1CCN(c2nc(OC[C@@H]3CCN(C(=O)c4cc(C(C)C)c(O)cc4OC)C3)nc3c2CCN(c2cccc4cccc(Cl)c24)C3)C[C@@H]1CC#N` [Compound 153, 2-((S)-1-acryloyl-4-(7-(8-chloronaphthalen-1-yl)-2-(((R)-1-(4-hydroxy-5-isopropyl-2-methoxybenzoyl)pyrrolidin-3-yl)methoxy)-5,6,7,8-tetrahydropyrido[3,4-d]pyrimidin-4-yl)piperazin-2-yl)acetonitrile], the IC50 on HSP90a protein was above 1000 nM. The concentration for a half-maximal effect (EC50) in experiment [1] is above 1000 nM. In experiment [2], this compound came in with an EC50 above 1000 nM. At KRAS(G12C) [3], the inhibition at 0.1562 µM was below 33%, the inhibition at 0.3125 µM was below 33%, the inhibition at 0.625 µM is below 33% and the inhibition at 1.25 µM is below 33%. For the same compound, on KRAS(G12C) [3], the inhibition at 2.5 µM is below 33%, the inhibition at 5 µM was below 33% and the inhibition at 10 µM was below 33%.

`C=CC(=O)N1CCN(c2nc(OC[C@@H]3CCN(C(=O)c4cc(C(C)C)c(O)cc4O)C3)nc3c2CCN(c2cccc4cccc(Cl)c24)C3)C[C@@H]1CC#N` [Compound 157, 2-((S)-1-acryloyl-4-(7-(8-chloronaphthalen-1-yl)-2-(((R)-1-(2,4-dihydroxy-5-isopropylbenzoyl)pyrrolidin-3-yl)methoxy)-5,6,7,8-tetrahydropyrido[3,4-d]pyrimidin-4-yl)piperazin-2-yl)acetonitrile] yielded an IC50 on HSP90a protein above 1000 nM. Also, in experiment [2], the EC50 was above 1000 nM. On KRAS(G12C) [3], this compound had an inhibition at 0.1562 µM below 33%, an inhibition at 0.3125 µM below 33%, an inhibition at 0.625 µM below 33% and an inhibition at 1.25 µM below 33%. Also, at KRAS(G12C) [3], the inhibition at 2.5 µM is below 33%, the inhibition at 5 µM was below 33% and the inhibition at 10 µM was below 33%. Also, the IC50 at KRAS(G12C) [4] is above 1000 nM.

For `C=CC(=O)N1CCN(c2nc(OC[C@@H]3CCN(C(=O)c4cc(CC)c(O)cc4O)C3)nc3c2CCN(c2cccc4cccc(Cl)c24)C3)C[C@@H]1CC#N` [Compound 158, 2-((S)-1-acryloyl-4-(7-(8-chloronaphthalen-1-yl)-2-(((R)-1-(5-ethyl-2,4-dihydroxybenzoyl)pyrrolidin-3-yl)methoxy)-5,6,7,8-tetrahydropyrido[3,4-d]pyrimidin-4-yl)piperazin-2-yl)acetonitrile], on HSP90a protein, the IC50 was above 1000 nM. This compound also returned an EC50 in experiment [1] above 1000 nM. Also, the EC50 in experiment [2] is above 1000 nM. At KRAS(G12C) [3], this compound yielded an inhibition at 0.1562 µM below 33%, an inhibition at 0.3125 µM below 33%, an inhibition at 0.625 µM below 33% and an inhibition at 1.25 µM below 33%. On KRAS(G12C) [3], this compound registered an inhibition at 2.5 µM below 33%, an inhibition at 5 µM below 33% and an inhibition at 10 µM below 33%. The IC50 on KRAS(G12C) [4] was above 1000 nM.

The compound `C=CC(=O)N1CCN(c2nc(OC[C@@H]3CCN(C(=O)c4cc(C(C)C)c(OC)cc4O)C3)nc3c2CCN(c2cccc4cccc(Cl)c24)C3)C[C@@H]1CC#N` [Compound 159, 2-((S)-1-acryloyl-4-(7-(8-chloronaphthalen-1-yl)-2-(((R)-1-(2-hydroxy-5-isopropyl-4-methoxybenzoyl)pyrrolidin-3-yl)methoxy)-5,6,7,8-tetrahydropyrido[3,4-d]pyrimidin-4-yl)piperazin-2-yl)acetonitrile] yielded an IC50 on HSP90a protein above 1000 nM. Also, the concentration giving a half-maximal response (EC50) in experiment [2] is above 1000 nM. At KRAS(G12C) [3], the inhibition at 0.1562 µM is below 33%, the inhibition at 0.3125 µM was below 33%, the inhibition at 0.625 µM was below 33% and the inhibition at 1.25 µM is below 33%. On KRAS(G12C) [3], this compound returned an inhibition at 2.5 µM below 33%, an inhibition at 5 µM below 33% and an inhibition at 10 µM below 33%. The IC50 on KRAS(G12C) [4] was above 1000 nM.

In turn, `C=CC(=O)N1CCN(c2nc(OC[C@@H]3CCN(C(=O)C4CCN(Cc5ccc(-n6c(C(N)=O)nnc6-c6cc(C(C)C)c(O)cc6O)cc5)CC4)C3)nc3c2CCN(c2cccc4cccc(Cl)c24)C3)C[C@@H]1CC#N` [Compound 183, 4-(4-((4-((R)-3-(((4-((S)-4-acryloyl-3-(cyanomethyl)piperazin-1-yl)-7-(8-chloronaphthalen-1-yl)-5,6,7,8-tetrahydropyrido[3,4-d]pyrimidin-2-yl)oxy)methyl)pyrrolidine-1-carbonyl)piperidin-1-yl)methyl)phenyl)-5-(2,4-dihydroxy-5-isopropylphenyl)-4H-1,2,4-triazole-3-carboxamide] gave an IC50 on HSP90a protein of 100 to 1000 nM. The compound further returned an EC50 in experiment [1] of 100 to 1000 nM. On KRAS(G12C) [3], this compound gave an inhibition at 0.1562 µM below 33%, an inhibition at 0.3125 µM below 33%, an inhibition at 0.625 µM below 33% and an inhibition at 1.25 µM of 33 to 66%. In addition, at KRAS(G12C) [3], the inhibition at 2.5 µM fell in the range of 33 to 66%, the inhibition at 5 µM was above 66% and the inhibition at 10 µM is above 66%.

For the compound `C=CC(=O)N1CCN(c2nc(OC[C@@H]3CCN(C(=O)C4CCN(Cc5ccc(-n6c(C(=O)NCC(F)(F)F)nnc6-c6cc(C(C)C)c(O)cc6O)cc5)CC4)C3)nc3c2CCN(c2cccc4cccc(Cl)c24)C3)C[C@@H]1CC#N` [Compound 185, 4-(4-((4-((R)-3-(((4-((S)-4-acryloyl-3-(cyanomethyl)piperazin-1-yl)-7-(8-chloronaphthalen-1-yl)-5,6,7,8-tetrahydropyrido[3,4-d]pyrimidin-2-yl)oxy)methyl)pyrrolidine-1-carbonyl)piperidin-1-yl)methyl)phenyl)-5-(2,4-dihydroxy-5-isopropylphenyl)-N-(2,2,2-trifluoroethyl)-4H-1,2,4-triazole-3-carboxamide], the IC50 on HSP90a protein is 100 to 1000 nM. In experiment [1], this compound showed an EC50 below 100 nM. Also, on KRAS(G12C) [3], the inhibition at 0.1562 µM was below 33%, the inhibition at 0.3125 µM is below 33%, the inhibition at 0.625 µM is below 33% and the inhibition at 1.25 µM lay in the range of 33 to 66%. At KRAS(G12C) [3], this compound showed an inhibition at 2.5 µM above 66%, an inhibition at 5 µM above 66% and an inhibition at 10 µM above 66%. Moreover, the IC50 on KRAS(G12C) [4] fell in the range of 100 to 1000 nM.

The record behind these values is patent publication US20230391772A1, “METHODS AND COMPOSITIONS FOR TARGETED PROTEIN DEGRADATION” (Ranok Therapeutics (Hangzhou) Co. Ltd., priority 2020, published 2023).
